{"source": "patent US20110117210A1", "about": "“Therapeutic treatment of human cancers using simple salts of zinc” (priority 2009, published 2011)", "key": {"[1]": {"system": "human colorectal cancer cells", "settings": "in-vitro; cited from earlier work"}, "[2]": {"system": "human thyroid cancer cells", "settings": "in vitro; cited from earlier work"}, "[3]": {"system": "human prostate cancer cells", "settings": "cited from earlier work"}, "[4]": {"assay": "Monitoring of treated cancer patients for manifestations of zinc toxicity", "format": "in vivo, human", "settings": "for toxic effects of zinc treatment: oral 600 mg per day 5 months, 900 mg per day 4 months", "method": "Step 4: Periodically monitoring the status of the afflicted human subject during the therapeutic treatment regimen to confirm that no manifestations of zinc toxicity appear.\nThe levels of zinc can be monitored in plasma by conventional blood test. A medically normal concentration of zinc in human plasma is about 100 μg/100 mL.\nThe oncologist or physician should therefore periodically examine their patient in two ways during treatment:\nFirst, the patient should be physically examined on a regular time basis for symptoms of zinc toxicity. As noted above, the risk and dangers of zinc toxicity in humans can occur in both acute and chronic forms; and symptoms of zinc toxicity can appear as nausea, vomiting, loss of appetite, abdominal cramps, diarrhea, and headaches.\nSecond, samples of the patient's blood should be taken routinely and regularly tested for zinc content using the blood chemistry assays and instrumentation conventionally known and commercially sold for this purpose. Although the values for the individual patient will likely vary considerably, the test results should approximate the medically normal concentration of zinc in human plasma of about 100 μg/100 mL.\nIn addition, although it is considered very unlikely that any manifestations of zinc toxicity will appear in an individual patient over the duration of therapeutic treatment with the present invention, it is deemed to be proper and necessary to verify that no serious manifestations of zinc toxicity appear regardless of how long the treatment regimen is continued. This is considered to be especially important in view of the likelihood of months and years of therapeutic treatment for some patients. Accordingly, the testing for undesirable zinc effects and toxicity should continue concurrently with and over the full duration of the therapeutic treatment for the patient."}, "[5]": {"system": "metastatic melanoma", "assay": "Clinical Case History 2: oral zinc salt treatment of a patient with metastatic melanoma", "format": "in vivo, human", "settings": "oral 600 mg per day; for edema of right leg: July 2009 follow-up; for metastatic nodes in abdominal cavity, computer tomography and ultrasound: Oct. 20, 2009, then 900 mg per 24 hours July-October 2009", "method": "In November 2008, the skin lesion became progressively larger and ulcerated. Then in December 2008, a skin tumor resection and dissection of an enlarged right inguinal lymph nodes were performed, yielding melanoma and inguinal lymph nodes with metastatic disease.\nIn January 2009, a course of conventional chemotherapy was prescribed and performed for the patient.\nThe patient was subsequently discharged from the hospital, with a poor prognosis (up to 2 months survival time).\nThe patient then began orally taking Zinc Picolinate at a 600 mg per day dosage. They orally ingested Zinc Picolinate daily, for 5 months time (from February, 2009 to May, 2009); and then Zinc Sulfate daily for 1 month (June, 2009) at a dose of 600 mg per day (300 mg twice a day with a meal) and for 4 months (from July, 2009 to October, 2009) at a dose of 900 mg per 24 hours (300 mg every 8 hours with a meal)."}, "[6]": {"settings": "80 mg per day of zinc for 6.3 years on average; cited from earlier work"}, "[7]": {"settings": "cited from earlier work"}, "[8]": {"target": "GSK-3 (Glycogen Synthase Kinase-3) (Homo sapiens, UniProt P49841)", "sequence (P49841 whole entry)": "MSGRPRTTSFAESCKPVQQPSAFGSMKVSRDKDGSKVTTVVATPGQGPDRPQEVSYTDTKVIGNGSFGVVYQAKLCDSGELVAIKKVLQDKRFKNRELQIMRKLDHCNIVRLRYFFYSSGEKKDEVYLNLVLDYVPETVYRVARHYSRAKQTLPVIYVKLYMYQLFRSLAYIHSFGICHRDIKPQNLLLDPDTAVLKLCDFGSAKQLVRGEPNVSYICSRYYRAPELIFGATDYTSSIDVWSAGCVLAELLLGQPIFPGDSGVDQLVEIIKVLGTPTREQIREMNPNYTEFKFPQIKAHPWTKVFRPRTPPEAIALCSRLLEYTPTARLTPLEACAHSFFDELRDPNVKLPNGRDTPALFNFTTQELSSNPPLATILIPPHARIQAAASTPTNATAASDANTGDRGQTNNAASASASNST", "settings": "cited from earlier work"}, "[9]": {"system": "HIPK2i cells", "settings": "zinc added to culture medium concomitant with adriamycine (ADR); cited from earlier work"}, "[10]": {"settings": "human, cited from earlier work"}, "[11]": {"settings": "after ingesting 4 grams (570 milligrams of elemental zinc); cited from earlier work"}, "[12]": {"system": "lung cancer (squamous cell carcinoma)", "assay": "Clinical Case History 3: oral zinc salt treatment of a lung cancer patient after radiotherapy", "format": "in vivo, human", "method": "A person afflicted with lung cancer (tumor stenosis of right upper lobe bronchus, squamous cell carcinoma) had been conventionally treated with radiotherapy.\nThe patient then began to take Zinc Picolinate daily, for 1 month, at a dose of 600 mg per day (orally ingested as 300 mg of Zinc Picolinate taken twice a day with meals). […] The patient continued to take Zinc Picolinate orally from August, 2009 till October, 2009—but at a dose of 900 mg per day (orally ingested as 300 mg of Zinc Picolinate every 8 hours with meals)."}, "[13]": {"system": "squamous cell carcinoma of the lung", "assay": "Clinical Case History 1: oral zinc salt treatment of a lung cancer patient", "format": "in vivo, human", "method": "A person was admitted to hospital with a cough, life threatening hemoptysis on Jan. 30, 2009. […] Because the patient denied either operation or chemotherapy, their survival prognosis was poor, up to 2 months survival time.\nThe patient then began taking Zinc Picolinate, orally, at a dose concentration of 200 mg a day. The patient orally ingested Zinc Picolinate daily, for 5 months (from February, 2009 to July, 2009) at a concentration of 200 mg per day, as a dose of 100 mg ingested twice a day with a meal. To date, the patient has not taken any other chemotherapeutic anticancer drug/agent, nor has undergone any other form of conventional cancer treatment.\nThe patient has been orally ingesting 200 mg of Zinc Picolinate per day for nearly six calendar months time. […] The patient has been orally taking 600 mg of Zinc Picolinate daily from August, 2009 to October, 2009."}, "[14]": {"settings": "water and aqueous based fluids, cited from earlier work"}, "[15]": {"settings": "Case History 2, metastatic melanoma"}, "[16]": {"settings": "Case History 2, metastatic melanoma, oral 600-900 mg per day"}}, "note": "Where two headings read alike, the source gives them in different places."}
{"molecule": "[Cl-].[Cl-].[Zn+2]", "note": "[Zinc Chloride]", "values": [{"measurement": "proliferation", "setting": "[1]", "value": "inhibits proliferation"}, {"measurement": "apoptosis", "setting": "[2]", "value": "induces apoptosis"}, {"measurement": "proliferation", "setting": "[2]", "value": "inhibits proliferation"}]}
{"molecule": "O=S(=O)([O-])[O-].[Zn+2]", "note": "[Zinc Sulfate]", "values": [{"measurement": "apoptosis", "setting": "[3]", "value": "induce apoptosis"}, {"measurement": "proliferation", "setting": "[3]", "value": "inhibit proliferation"}, {"measurement": "toxic effects of zinc treatment", "setting": "[4]; [15]", "value": "no toxic effects"}, {"measurement": "weight loss", "setting": "[4]; [16]", "value": "no weight loss"}, {"measurement": "edema of right leg", "setting": "[5]", "value": "significantly decreased"}, {"measurement": "metastatic nodes in abdominal cavity, computer tomography and ultrasound", "setting": "[5]", "value": "complete regression"}]}
{"molecule": "[O]=[Zn]", "note": "[zinc oxide]", "values": [{"measurement": "hospitalizations for genitourinary causes", "setting": "[6]", "value": "significant increase"}]}
{"molecule": "[Zn]", "note": "[zinc]", "values": [{"measurement": "level of zinc in diet known to cause chronic zinc toxicosis", "setting": "[7]", "value": "> 2,000 ppm"}, {"measurement": "IC50", "setting": "[8]", "value": 15, "unit": "µM"}, {"measurement": "wtp53 transcription activity", "setting": "[9]", "value": "restored wtp53 transcription activity"}, {"measurement": "intake with reported reductions in a copper-containing enzyme (marker of copper status)", "setting": "[10]; up to 10 weeks", "value": "approximately 60 mg/day"}, {"measurement": "intake associated with chronic effects: low copper status, altered iron function, reduced immune function, reduced high-density lipoproteins", "setting": "[10]", "value": "150-450 mg of zinc per day"}]}
{"molecule": "Zinc Gluconate", "values": [{"measurement": "time to severe nausea and vomiting", "setting": "[11]", "value": "≤ 30", "unit": "min"}]}
{"molecule": "Zinc Picolinate", "values": [{"measurement": "weight loss", "setting": "[4]; Case History 1, lung cancer, nine months oral treatment, 200 then 600 mg per day", "value": "no weight loss"}, {"measurement": "toxic effects of treatment", "setting": "[4]; Case History 1, lung cancer, oral 200 mg per day, later 600 mg per day", "value": "no toxic effects"}, {"measurement": "toxic effects of zinc treatment", "setting": "[4]; [15]", "value": "no toxic effects"}, {"measurement": "weight loss", "setting": "[4]; [16]", "value": "no weight loss"}, {"measurement": "zinc toxic effects", "setting": "[4]; Case History 3, lung cancer, oral 600 mg per day 1 month, 900 mg per day 3 months", "value": "no zinc toxic effects"}, {"measurement": "weight loss", "setting": "[4]; Case History 3, lung cancer, oral 600-900 mg per day", "value": "no weight loss"}, {"measurement": "zinc toxicity", "setting": "[4]; three cancer patients (Case Histories 1-3), 200 mg to 900 mg per day, daily for 4-9 months", "value": "no zinc toxicity"}, {"measurement": "overall physical condition (cough, shortness of breath)", "setting": "[12]; 600 mg per day 1 month, then 900 mg per day 3 months", "value": "significant improvement"}, {"measurement": "tumor size, bronchoscopy", "setting": "[12]; Oct. 21, 2009, 600 mg per day 1 month, then 900 mg per day August-October 2009", "value": "significant decrease"}, {"measurement": "right upper lobe bronchus previously obstructed by tumor, bronchoscopy", "setting": "[12]; Oct. 21, 2009, 90% of bronchial lumen obstructed Jun. 14, 2009, 600 then 900 mg per day", "value": "complete opening"}, {"measurement": "decrease in the size of the lung tumor, X-ray examination", "setting": "[12]; after one month oral 600 mg per day (300 mg twice a day)", "value": 2, "unit": "fold"}, {"measurement": "signs of cancer progression", "setting": "[13]; November 2009, nine months of treatment: 200 mg per day, then 600 mg daily August-October 2009", "value": "no signs of cancer progression"}, {"measurement": "clinical outcome of treatment (tumor growth, disease status)", "setting": "[13]; oral 200 mg per day (100 mg twice a day), 5 months, no other cancer treatment", "value": "suppression of tumor growth and stabilization of the disease"}, {"measurement": "right pleural effusion, computer tomography", "setting": "[13]; oral 200 mg per day about 5 months, Jul. 1, 2009, effusion present Jan. 14, 2009", "value": "no right pleural infusion"}, {"measurement": "changes in the size of enlarged subcarinal lymph nodes, computer tomography", "setting": "[13]; oral 200 mg per day about 5 months, Jul. 1, 2009 vs Jan. 14, 2009", "value": "no meaningful changes"}, {"measurement": "changes in the size of primary lung tumor, computer tomography", "setting": "[13]; person, oral 200 mg per day (100 mg twice a day) about 5 months, Jul. 1, 2009 vs Jan. 14, 2009", "value": "no substantive changes"}, {"measurement": "Water Solubility", "setting": "[14]", "value": "slightly soluble"}, {"measurement": "Water Solubility", "setting": "[14]; listed as zinc picolinate", "value": "only slightly soluble"}, {"measurement": "edema of right leg", "setting": "[5]", "value": "significantly decreased"}, {"measurement": "metastatic nodes in abdominal cavity, computer tomography and ultrasound", "setting": "[5]", "value": "complete regression"}]}
